Data published in patent US20250197864A1, “LNCRNA TRANSCRIPTS IN MELANOMAGENESIS” (The Regents of the University of California, priority 2021, published 2025).

What was measured:
[1] = test system: gene expression in D04 melanoma cells; test: DAVID Functional Annotation Clustering (GO term) analysis of DE genes; parameters: species or system human; settings: RNA-Seq
Method: Differential expression (DE) analysis was done using DESeq2. Differentially expressed genes were defined by more than 1.5-fold changes (log 2 >0.58 or <−0.58) in expression with FDR<0.05. GO term analysis was done using DAVID Functional Annotation Clustering analysis.
To examine the biomolecular changes upon TRASH-inhibition in melanoma, D04 cells were treated with TRASH-ASOs (SEQ ID NO:15) and Control-ASOs and RNA was extracted and used for RNA-Seq. […] These GO terms consisted of genes encoding growth factors, tyrosine kinases, G protein coupled receptor subunits, and collagen subunits. Scatter plot diagram showing differential gene expression after TRASH-ASO treatment compared to Control-ASO treatment. (cut-off for significance was adjusted p-value <0.05). Data was obtained from RNA-Seq of D04 melanoma cells, treatment period was three days. (FIG. 5c)

D04 cells [2] = test: Repetition of drug treatment in surviving D04 cells (drug resistance test); format: cell-based, human; settings: TRASH-ASO 50 nM or MEKi 15 nM (or 20 nM), recovery in drug free media, five days (120 hrs)
Method: Dependent on cell doubling time, 0.7-2×10^^3 cells were seeded in 96 well plates. 1 day after seeding cells were incubated in media with oligonucleotide concentration and/or MEKi and transfection reagent. 3 (synergy experiments) or 5 (solely ASO) days after transfection Total luminescence was measured on the SynergyHT plate reader (BioTek) using Gen5 software.
Rescuing cells that survived initial TRASH-ASO (SEQ ID NO:15) and MEKi (trametinib) treatment and providing the rescued cells with a phase of regrowth in drug free media, was followed by repetition of the preceding drug treatment. […] Incubation time was 120 hrs, n=3. (FIG. 5d).

D04 cells [3] = test: Flow cytometry apoptosis (Annexin V and propidium iodide); format: cell-based, human; settings: 50 nM, 24 h, vs Control-ASO
Method: To confirm activation of apoptosis and cell death in response to TRASH-ASO treatment (SEQ ID NO: 15) D04 cells were either treated with control-ASO or TRASH-ASO (50 nM) for 24 h. The cells were stained with Alexa 488 Annexin V and propidium iodide (PI) (Invitrogen™ Dead Cell Apoptosis Kits with Annexin V for Flow Cytometry Catalog number: V13241). […] (FIG. 5e)

AV4 melanoma cell line = test: Cell viability assay (ATP quantitation); format: cell-based; settings: 50 nM, 5 days, vs non-targeting control
Procedure, shortened: (§1)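 Seeded at 0.7-2×10^3 cells/well, cells were treated one day later with oligonucleotides (typically 50 nM, Lipofectamine 3000) and/or MEK inhibitor. Total luminescence was read 3 days (synergy experiments) or 5 days (ASO alone) after transfection.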

[4] = test system: A-172 Glioblastoma cell line; test: Cell viability assay (ATP quantitation); format: cell-based; settings: 50 nM, 5 days, vs non-targeting control
Procedure, shortened: as §1

[5] = test system: Sk-Mel-5 melanoma cell line; test: Cell viability assay (ATP quantitation); format: cell-based; settings: 50 nM, 5 days, vs non-targeting control
Procedure, shortened: as §1

[6] = test system: MaMel30 melanoma cell line; test: Cell viability assay (ATP quantitation); format: cell-based; settings: 50 nM, 5 days, vs non-targeting control
Procedure, shortened: as §1

[7] = test system: U20S osteosarcoma cell line; test: Cell viability assay (ATP quantitation); format: cell-based; settings: 50 nM, 5 days, vs non-targeting control
Procedure, shortened: as §1

[8] = test system: SW1271 lung cancer cell line; test: Cell viability assay (ATP quantitation); format: cell-based; settings: 50 nM, 5 days, vs non-targeting control
Procedure, shortened: as §1

[9] = test system: Hs940.T melanoma cell line; test: Cell viability assay (ATP quantitation); format: cell-based; settings: 50 nM, 5 days, vs non-targeting control
Procedure, shortened: as §1

[10] = test system: Sk-N-AS Neuroblastoma cell line; test: Cell viability assay (ATP quantitation); format: cell-based; settings: 50 nM, 5 days, vs non-targeting control
Procedure, shortened: as §1

[11] = test system: HCT116 colon carcinoma cell line; test: Cell viability assay (ATP quantitation); format: cell-based; settings: 50 nM, 5 days, vs non-targeting control
Procedure, shortened: as §1

[12] = test system: WM3060 melanoma cell line; test: Cell viability assay (ATP quantitation); format: cell-based; settings: 50 nM, 5 days, vs non-targeting control
Procedure, shortened: as §1

[13] = test system: U138-MG Glioblastoma cell line; test: Cell viability assay (ATP quantitation); format: cell-based; settings: 50 nM, 5 days, vs non-targeting control
Procedure, shortened: as §1

[14] = test system: U87-MG Glioblastoma cell line; test: Cell viability assay (ATP quantitation); format: cell-based; settings: 50 nM, 5 days, vs non-targeting control
Procedure, shortened: as §1

[15] = test system: H82 lung cancer cell line; test: Cell viability assay (ATP quantitation); format: cell-based; settings: 50 nM, 5 days, vs non-targeting control
Procedure, shortened: as §1

[16] = test system: LS174 colon carcinoma cell line; test: Cell viability assay (ATP quantitation); format: cell-based; settings: 50 nM, 5 days, vs non-targeting control
Procedure, shortened: as §1

[17] = test system: T98G Glioblastoma cell line; test: Cell viability assay (ATP quantitation); format: cell-based; settings: 50 nM, 5 days, vs non-targeting control
Procedure, shortened: as §1

[18] = test system: H929 multiple myeloma cell line; test: Cell viability assay (ATP quantitation); format: cell-based; settings: 50 nM, 5 days, vs non-targeting control
Procedure, shortened: as §1

[19] = test system: SW480 colon carcinoma cell line; test: Cell viability assay (ATP quantitation); format: cell-based; settings: 50 nM, 5 days, vs non-targeting control
Procedure, shortened: as §1

[20] = test system: H1299 lung cancer cell line; test: Cell viability assay (ATP quantitation); format: cell-based; settings: 50 nM, 5 days, vs non-targeting control
Procedure, shortened: as §1

[21] = test system: H2228 lung cancer cell line; test: Cell viability assay (ATP quantitation); format: cell-based; settings: 50 nM, 5 days, vs non-targeting control
Procedure, shortened: as §1

[22] = test system: kinases in D04, D04RM and MM415 melanoma cell extracts; test: High Throughput Kinase Activity Mapping (HT-KAM); format: cell-based, human; settings: ASO 50 nM, one day, vs Control-ASO
Method: We mapped and compared the phospho-catalytic profile of kinases of D04, MM415 and D04RM cells that were incubated with TRASH targeting ASOs (SEQ TD NO: 15), ASOs targeting the oncogenic lncRNA Malat1 and non-targeting control ASOs. Therefore, ye used the high-throughput system HTKAM to measure the enzymatic activity of kinases using biological peptide targets as phospho-sensors to reveal kinase dependencies in cell lines.
Kinases cover a wide range of apoptosis regulating functions in cancer. Given the findings that TRASH-ASO treatment (SEQ ID NO:15) strongly affects the transcriptional regulation of genes that are related to kinase signaling pathways, we aimed to perform functional profiling of kinase activity shifts triggered by TRASH-inhibition. To do so, we used a kinase activity screening platform39 (named High Throughput Kinase Activity Mapping—HT-KAM) that enables the simultaneous identification of kinase enzymes functional state in cancer cells across a broad range of kinase families (see Methods for details). We generated protein extracts of two versions of the D04 (D04—treatment naive; D04RM—trametinib resistant) and the MM415 melanoma cell-lines, treated with Control-ASOs or TRASH-ASOs. […]

With “GACTGGAGATAATTAA (gapmer, pattern not given here) [SEQ ID NO: 15, GapmeR ASO targeting AC004540.4 (TRASH), exon region of both isoforms; used for in vitro experiments]” the “top enriched GO term clusters associated with the down-regulated genes” value [1] was ““ECM-receptor interaction” and “PI3K-AKT signaling pathway””, the “top enriched GO term clusters associated with the up-regulated genes” value [1] was ““protein tyrosine kinase activity” (GO: 0004713) and “Ras guanyl-nucleotide exchange factor activity” (G00005088)” and the “cell-growth reduction on repetition of the preceding drug treatment in surviving cells” value (D04 cells [2]; n=3, listed as SEQ ID NO:15) was “increased vulnerability”. For the same sequence, the “cell-growth reduction on repetition of the preceding drug treatment in surviving cells” value (D04 cells [2]; n=3, listed as TRASH-ASO) was “significantly increased (p=0.004) cell-growth reduction”, the “fractions of apoptotic and dead cells (Annexin V / PI)” value (D04 cells [3]) was “Increased fractions of apoptotic and dead cells” and the cell viability decrease (AV4 melanoma cell line) was “significant cell viability decrease”. The cell viability decrease [4] was “significant cell viability decrease”, the cell viability decrease [5] was “significant cell viability decrease” and the cell viability decrease [6] was “significant cell viability decrease”. The cell viability decrease [7] was “significant cell viability decrease”, the cell viability decrease [8] was “significant cell viability decrease” and the cell viability decrease [9] was “significant cell viability decrease”. The cell viability decrease [10] was “significant cell viability decrease”, the cell viability decrease [11] was “significant cell viability decrease” and the cell viability decrease [12] was “significant cell viability decrease”. For the same sequence, the cell viability decrease [13] was “significant cell viability decrease”, the cell viability decrease [14] was “significant cell viability decrease” and the cell viability decrease [15] was “significant cell viability decrease”. The cell viability decrease [16] was “significant cell viability decrease”, the cell viability decrease [17] was “significant cell viability decrease” and the cell viability decrease [18] was “significant cell viability decrease”. The cell viability decrease [19] was “significant cell viability decrease”, the cell viability decrease [20] was “significant cell viability decrease” and the cell viability decrease [21] was “significant cell viability decrease”. For the same sequence, the “activity of anti-apoptotic kinases (AKT1, CDK1, LYN, YES1, CHEK1, PKCA, STK11, PKCa, PIM1) by HT-KAM” value ([22]; listed as SEQ TD NO: 15) was “significantly decreased activity levels” and the “activity of anti-apoptotic kinases (AKT1, CDK1, LYN, YES1, CHEK1, PKCA, STK11, PKCa, PIM1) by HT-KAM” value ([22]; listed as TRASH-ASO) was “significantly less active”.
